Where two headings read alike, the source gives them in different places.
Target: T1, Chk1 (Homo sapiens, UniProt O14757)
T1 construct: purchased Upstate Biotechnology
T1 sequence (O14757 1-476): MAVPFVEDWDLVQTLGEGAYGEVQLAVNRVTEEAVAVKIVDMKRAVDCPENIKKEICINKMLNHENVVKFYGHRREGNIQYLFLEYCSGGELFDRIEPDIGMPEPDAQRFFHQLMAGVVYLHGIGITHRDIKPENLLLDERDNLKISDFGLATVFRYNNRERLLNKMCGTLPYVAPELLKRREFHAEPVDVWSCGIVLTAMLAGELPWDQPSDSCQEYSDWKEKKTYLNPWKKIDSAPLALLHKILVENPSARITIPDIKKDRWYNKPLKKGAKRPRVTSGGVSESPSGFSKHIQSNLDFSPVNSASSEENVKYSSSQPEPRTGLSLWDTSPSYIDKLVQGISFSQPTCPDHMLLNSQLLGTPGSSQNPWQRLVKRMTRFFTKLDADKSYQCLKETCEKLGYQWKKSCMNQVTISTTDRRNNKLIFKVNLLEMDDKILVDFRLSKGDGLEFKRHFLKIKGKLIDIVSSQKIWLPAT
Assay: Chk1 kinase assay: incorporation of γ-33P ATP into immobilized myelin basic protein
Type: biochemical
Details: read-out: Chk1 IC50
In short: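 Immobilized-MBP radiometric kinase assay, room temperature for 1 h; ATP 10 μM (Chk1, 10 nM enzyme) or 30 μM (Chk2, 20 nM enzyme) with 33P tracer. Values are IC50s, with Ki derived from them.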

[1] = Table 11, Chk1 only, class symbols A-D

Row | SMILES | IC50 (Table 11, Chk1 only) [nM] | IC50 [nM] | also measured
1 | CNC(=O)c1nc(-c2noc(C3CCCC3)n2)cnc1N [Example 67, 3-amino-6-(5-cyclopentyl-1,2,4-oxadiazol-3-yl)-N-methylpyrazine-2-carboxamide] | – | ≥ 10000 | –
2 | Nc1ncc(-c2cccc(CNC(=O)c3cncc(-c4cccs4)c3)c2)nc1C(=O)N[C@H]1CCCNC1 [Example 949, 3-amino-N-[(3S)-piperidin-3-yl]-6-{3-[({[5-(2-thienyl)pyridin-3-yl]carbonyl}amino)methyl]phenyl}pyrazine-2-carboxamide] | – | – | IC50 [1]: < 50 nM
3 | CNC(=O)c1nc(-c2cccc(CNCc3cc(F)c(F)c(F)c3)c2)cnc1N [Example 419, 3-amino-N-methyl-6-[3-({[(3,4,5-trifluorophenyl)methyl]amino}methyl)phenyl]pyrazine-2-carboxamide] | – | < 50 | –
4 | CNC(=O)c1nc(-c2cccc(CNC(=O)COc3ccc(C(C)C)cc3)c2)cnc1N [Example 346, 3-amino-N-methyl-6-(3-{[({[4-(1-methylethyl)phenyl]oxy}acetyl)amino]methyl}phenyl)pyrazine-2-carboxamide] | – | 50 to 1000 | –
5 | CNC(=O)c1nc(-c2cccc(CNC(C)(C)c3ccccc3)c2)cnc1N [Example 446, 3-amino-N-methyl-6-(3-{[(1-methyl-1-phenylethyl)amino]methyl}phenyl)pyrazine-2-carboxamide] | 50 to 1000 | – | –
6 | CNC(=O)c1nc(-c2ccc(N(C)C)cc2)cnc1N [Example 76, 3-amino-6-[4-(dimethylamino)phenyl]-N-methylpyrazine-2-carboxamide] | – | 1000 to 10000 | –
7 | Nc1ncc(-c2cccc(CNC(=O)c3ncccc3O)c2)nc1C(=O)N[C@H]1CCCNC1 [Example 987, 3-amino-6-[3-({[(3-hydroxypyridin-2-yl)carbonyl]amino}methyl)phenyl]-N-[(3S)-piperidin-3-yl]pyrazine-2-carboxamide] | – | – | IC50 [1]: < 50 nM
8 | CNC(=O)c1nc(-c2cccc(CNC(=O)c3ccc(Cl)c(Cl)c3)c2)cnc1N [Example 320, 3-amino-6-[3-({[(3,4-dichlorophenyl)carbonyl]amino}methyl)phenyl]-N-methylpyrazine-2-carboxamide] | – | 50 to 1000 | –

Now from value to compound, other results behind:

Row | IC50 (Table 11, Chk1 only) [nM] | IC50 [nM] | SMILES | also measured
9 | < 50 | – | CNC(=O)c1nc(-c2ccc3c(c2)C(N[C@H]2CCc4ccccc42)CC3)cnc1N (stereo partly drawn) [Example 526, 3-amino-6-{3-[(1S)-2,3-dihydro-1H-inden-1-ylamino]-2,3-dihydro-1H-inden-5-yl}-N-methylpyrazine-2-carboxamide] | –
10 | 50 to 1000 | – | Nc1ncc(-c2cccc(C(=O)N[C@H]3CCc4ccccc43)c2)nc1C(=O)NCCc1c[nH]cn1 [Example 767, 3-amino-6-(3-{[(1S)-2,3-dihydro-1H-inden-1-ylamino]carbonyl}phenyl)-N-[2-(1H-imidazol-4-yl)ethyl]pyrazine-2-carboxamide] | –
11 | 50 to 1000 | – | NC(=O)c1nc(-c2cccc(CN[C@H]3CCc4ccccc43)c2)cnc1N [Example 530, 3-amino-6-(3-{[(1S)-2,3-dihydro-1H-inden-1-ylamino]methyl}phenyl)pyrazine-2-carboxamide] | –
12 | 1000 to 10000 | – | CNC(=O)c1cc(-c2cccc(CNC3CCc4c(F)ccc(Br)c43)c2)cnc1N (centres unmarked) [Example 521, 2-amino-5-(3-{[(7-bromo-4-fluoro-2,3-dihydro-1H-inden-1-yl)amino]methyl}phenyl)-N-methylpyridine-3-carboxamide] | –
13 | < 50 | – | CNC(=O)c1nc(-c2cccc(CN[C@H]3CCc4ccccc4C3)c2)cnc1N [Example 454, 3-amino-N-methyl-6-(3-{[(2S)-1,2,3,4-tetrahydronaphthalen-2-ylamino]methyl}phenyl)pyrazine-2-carboxamide] | –
14 | 1000 to 10000 | – | Nc1ncc(-c2cccc(CN[C@H]3CCc4ccccc43)c2)nc1C(=O)NCCN1CCOCC1 [Example 542, 3-amino-6-(3-{[(1S)-2,3-dihydro-1H-inden-1-ylamino]methyl}phenyl)-N-(2-morpholin-4-ylethyl)pyrazine-2-carboxamide] | –

From US7704995B2 (Exelixis, Inc., priority 2003, dated 2010)
